Assay: Passive diffusion of fluorophore through tripartite DIB network (intestinal space, enterocyte, blood compartments)
Assay type: in vitro ADME
Parameters: half-life: dose or concentration left out as unconfirmed
Description: The first droplet 12 can mimic the intestinal space, the second droplet 14 can mimic an enterocyte, and the third droplet 16 can mimic the blood. The interior of each droplet 12, 14, 16 comprises a buffer (see Table 1) that mimics the pH and salt composition of the respective compartment. The barrier layer or artificial membrane between each pair of adjacent droplets can be an equal mixture of the phospholipids L-α-phosphatidylcholine (PC) and L-α-phosphatidylethanolamine (PE). The size of the droplets 116 can mimic the volume of human cells.
To prepare the lipid solutions, chloroform was removed from the lipid stock solutions by placing 10 mg (e.g., 400 μL of a 25 mgmL^−1 solution) of lipids in a 10 mL glass roundbottom flask, and rotating the flask under a stream of nitrogen gas to create a thin film. The flask was then placed in a desiccator under vacuum for 1 hour to remove residual solvent. […]
During use, the microfluidic devices were mounted in a heating platform set to 37° C. on a microscope stage (e.g., a Nikon Eclipse Ti2-E or a Nikon Eclipse Ti2-U inverted microscope) for visualization. […] Fluorescence and brightfield images for fluorescence experiments were captured using a measurement camera (e.g., a Hamamatsu ORCA Flash4.0 V3, with a Solis 1C cold white LED (e.g., from Thorlabs) and a GFP SemrockBrightline large field of view filter cube (e.g., from Nikon).
Reagents were introduced into the microfluidic devices using a pressure pump (e.g., an Elveflow OB1 MK3 pressure pump), four 1.5 mL Eppendorf tubes as reservoirs and four matched lengths of PTFE tubing. […] Following equilibration, the main chamber was monitored in Motion Blitz Director for quantification of device performance, and NIS Elements Advanced Research (Nikon, version 5.11.01) for fluorescence data collection. Following formation of a tripartite DIB network for a fluorescence experiment, flow was stopped from all reservoirs from within the Elveflow control software. […]

SMILES: O=C1OC2(c3ccc(O)cc3Oc3cc(O)ccc32)c2ccccc21 [fluorescein]
- compartment preference in control triplets (100 µM): clear preference for pH 7.4 compartments
- Papp (DIB network treated as two compartment model, intestinal space to enterocyte droplet, Equation (3), data of FIG. 6): (5.5±0.8)×10^−5 cms^−1
- half-life (DIB network, intestinal space droplet (pH 6.5) into enterocyte droplet (pH 7.4), 37° C., exponential curve fit, FIG. 5, read-out: half-life (t1/2) of the fluorophore in the intestinal space (converted)): 1.8 min

Source: patent US11673139B2, “Microfluidic platforms for drug discovery” (UVic Industry Partnerships Inc., priority 2020, dated 2023)
